One assay has as its target c-Cbl (Homo sapiens (Human), UniProt P22681). In words: C-Cbl LCK Ub TR-FRET assay (C-cbl Lck HTRF). Type of assay: biochemical. The gist of the method: (§1)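 Detection reagents added, brief spin, 20 min RT. IC50 fit normalized to no-LCK (low) and DMSO (high) controls.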
A further assay concerns the target Cbl-b (Homo sapiens (Human), UniProt Q13191). Put plainly: Cbl-b LCK Ub TR-FRET assay (Cbl-b Lck HTRF). The class given is biochemical. Particulars: for IC50: Cbl-b LCK Ub TR-FRET; for fold-selectivity (Cbl-b over C-cbl): ratio C-cbl Lck HTRF IC50 / Cbl-b Lck HTRF IC50. A digest of the protocol:
as §1

The target of the next assay is c-Cbl (residues 47-435) (Homo sapiens (Human), UniProt P22681). Put plainly: c-Cbl SPR assay. The class given is binding. The following applies: 20° C. A digest of the protocol: (§2)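 Captured protein (1300-1500 RU for both isoforms) was probed in multi-cycle kinetics with 6 concentrations in 2-fold dilution, 60 s contact, 40 μl/min, dissociation 120-1200 s, double-referenced. Kinetic and affinity parameters came from a 1:1 binding fit. For slow off-rates, kd was set independently by a chaser-based method.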
(In general: SPR reads the build-up and loss of mass on a sensor chip optically.)

Assay [1] deals with Human Cbl-b (residues 40-426) (Homo sapiens (Human), UniProt Q13191). Put plainly: Cbl-b SPR assay. Type of assay: binding. The following applies: for Fold of selectivity: C-cbl SPR Kd vs Cbl-b SPR Kd; for Kd: SPR, 20° C. The gist of the method: as §2
Chain of Human Cbl-b (residues 40-426) (Q13191 40-426): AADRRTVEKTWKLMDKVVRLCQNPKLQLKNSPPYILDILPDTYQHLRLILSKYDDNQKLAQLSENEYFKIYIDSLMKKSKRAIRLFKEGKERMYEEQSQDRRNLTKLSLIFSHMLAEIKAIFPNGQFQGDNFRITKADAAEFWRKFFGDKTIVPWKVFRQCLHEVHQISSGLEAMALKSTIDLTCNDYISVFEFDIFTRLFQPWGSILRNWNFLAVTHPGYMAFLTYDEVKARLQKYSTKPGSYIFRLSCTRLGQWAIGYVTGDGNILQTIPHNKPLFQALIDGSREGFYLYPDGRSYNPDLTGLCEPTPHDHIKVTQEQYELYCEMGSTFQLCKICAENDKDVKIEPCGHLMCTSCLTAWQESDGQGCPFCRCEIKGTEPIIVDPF

Chain of Cbl-b (Q13191 40-426): as above
Chain of c-Cbl (residues 47-435) (P22681 47-435): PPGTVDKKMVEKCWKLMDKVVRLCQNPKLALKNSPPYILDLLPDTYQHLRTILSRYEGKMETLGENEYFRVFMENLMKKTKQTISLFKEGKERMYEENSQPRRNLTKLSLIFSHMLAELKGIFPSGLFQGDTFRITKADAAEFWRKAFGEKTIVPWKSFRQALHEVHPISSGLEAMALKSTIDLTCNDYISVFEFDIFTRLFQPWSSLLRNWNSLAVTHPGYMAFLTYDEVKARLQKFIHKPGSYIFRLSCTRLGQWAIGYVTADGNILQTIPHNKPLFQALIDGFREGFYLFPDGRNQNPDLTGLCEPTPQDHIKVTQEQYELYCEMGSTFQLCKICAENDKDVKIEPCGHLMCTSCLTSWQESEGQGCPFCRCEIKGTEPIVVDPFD
Chain of c-Cbl (P22681 47-435): as above

As usually defined, the IC50 is the concentration that gives 50% inhibition. Read a high IC50 as weaker potency in that assay. By Kd is commonly meant a measure of binding affinity in units of concentration. A low value points to tighter binding. In the case of `CO[C@H]1C[C@](c2cc(OC3COC3)cc(N3Cc4c(cc(CNC5(C)CCC5)cc4C(F)(F)F)C3=O)c2)(c2nncn2C)C1` [Compound 242, 2-(3-((1r,3r)-3-methoxy-1-(4-methyl-4H-1,2,4-triazol-3-yl)cyclobutyl)-5-(oxetan-3-yloxy)phenyl)-6-(((1-methylcyclobutyl)amino)methyl)-4-(trifluoromethyl)isoindolin-1-one], the IC50 was 220 nM on c-Cbl and 56 nM against Cbl-b. In addition, at Cbl-b, the “fold-selectivity (Cbl-b over C-cbl)” value amounted to 4.0x. Further, the Kd at c-Cbl (residues 47-435) worked out at 130 nM; in assay [1], 23 nM. This molecule also registered a Fold of selectivity in assay [1] of 5.5×.

`CO[C@H]1C[C@@](c2cc(NC3COC3)cc(N3Cc4c(cc(CNC5(C)CCC5)cc4C(F)(F)F)C3=O)c2)(c2nncn2C)C1` [Compound 243, 2-(3-((1s,3s)-3-methoxy-1-(4-methyl-4H-1,2,4-triazol-3-yl)cyclobutyl)-5-(oxetan-3-ylamino)phenyl)-6-(((1-methylcyclobutyl)amino)methyl)-4-(trifluoromethyl)isoindolin-1-one]: the IC50 at c-Cbl was 290 nM. Further, at Cbl-b, the IC50 came to 64 nM and the “fold-selectivity (Cbl-b over C-cbl)” value came out at 4.4x. This molecule also returned a Kd at c-Cbl (residues 47-435) of 150 nM. For the same molecule, in assay [1], the Fold of selectivity amounted to 14× and the Kd worked out at 11 nM.

Regarding `Cn1cnnc1[C@]1(c2cccc(N3Cc4c(Cl)cc(CNC5(C)CCC5)cc4C3=O)c2)C[C@H](F)C1` [Compound 246, 4-chloro-2-(3-((1s,3s)-3-fluoro-1-(4-methyl-4H-1,2,4-triazol-3-yl)cyclobutyl)phenyl)-6-(((1-methylcyclobutyl)amino)methyl)isoindolin-1-one], at c-Cbl, the IC50 turned out to be 15 nM. Besides, at Cbl-b, half-maximal inhibition (IC50) required 8.6 nM and the “fold-selectivity (Cbl-b over C-cbl)” value was 1.7x. Also, on c-Cbl (residues 47-435), the Kd is 8.5 nM. In assay [1], this molecule returned a Fold of selectivity of 2.1× and a Kd of 4.2 nM.

Molecule `Cn1cnnc1[C@]1(c2cccc(N3Cc4c(cc(CNC5(C)CCC5)cc4C(F)F)C3=O)c2)C[C@H](F)C1` [Compound 247, 4-(difluoromethyl)-2-(3-((1s,3s)-3-fluoro-1-(4-methyl-4H-1,2,4-triazol-3-yl)cyclobutyl)phenyl)-6-(((1-methylcyclobutyl)amino)methyl)isoindolin-1-one] had an IC50 against c-Cbl of 18 nM. Further, on Cbl-b, 9.8 nM corresponded to half-maximal inhibition (IC50) and the “fold-selectivity (Cbl-b over C-cbl)” value turned out to be 1.9x. On c-Cbl (residues 47-435), this molecule yielded a Kd of 12 nM. In assay [1], this molecule came in with a Fold of selectivity of 5.5× and a Kd of 2.2 nM.

Molecule `Cn1cnnc1[C@H](CC1CCCC1)c1cccc(N2Cc3c(cc(CNC4(C)CCC4)cc3C(F)(F)F)C2=O)c1` [Compound 249, (R)-2-(3-(2-cyclopentyl-1-(4-methyl-4H-1,2,4-triazol-3-yl)ethyl)phenyl)-6-(((1-methylcyclobutyl)amino)methyl)-4-(trifluoromethyl)isoindolin-1-one] gave an IC50 against c-Cbl of 500 nM. In addition, at Cbl-b, the IC50 was 100 nM and the “fold-selectivity (Cbl-b over C-cbl)” value is given as 5.0x. This molecule also yielded a Kd on c-Cbl (residues 47-435) of 300 nM. In assay [1], this molecule showed a Fold of selectivity of 6.9× and a Kd of 49 nM.

With `Cn1cnnc1[C@@H](c1cccc(N2Cc3c(cc(CNC4(C)CCC4)cc3C(F)(F)F)C2=O)c1)C1CCCC1` [Compound 256, (R)-2-(3-(cyclopentyl(4-methyl-4H-1,2,4-triazol-3-yl)methyl)phenyl)-6-(((1-methylcyclobutyl)amino)methyl)-4-(trifluoromethyl)isoindolin-1-one], on c-Cbl, it took 1400 nM to reach half-maximal inhibition (IC50). Besides, on Cbl-b, half-maximal inhibition (IC50) was put at 210 nM and the “fold-selectivity (Cbl-b over C-cbl)” value is given as 6.5x. In addition, on c-Cbl (residues 47-435), binding was characterised by a dissociation constant (Kd) of 2500 nM. In assay [1], this molecule came in with a Fold of selectivity of 14× and a Kd of 180 nM.

`Cn1cnnc1[C@H](c1cccc(N2Cc3c(cc(CNC4(C)CCC4)cc3C(F)(F)F)C2=O)c1)C1CCCC1` [Compound 257, (S)-2-(3-(cyclopentyl(4-methyl-4H-1,2,4-triazol-3-yl)methyl)phenyl)-6-(((1-methylcyclobutyl)amino)methyl)-4-(trifluoromethyl)isoindolin-1-one] returned an IC50 on c-Cbl of 27 nM. Besides, on Cbl-b, the midpoint of inhibition, the IC50, lay at 22 nM and the “fold-selectivity (Cbl-b over C-cbl)” value turned out to be 1.2x. On c-Cbl (residues 47-435), this molecule displayed a Kd of 3.7 nM. Besides, in assay [1], the Fold of selectivity was determined as 5.7× and binding was put at a Kd of 0.65 nM.

For the molecule `Cn1cnnc1[C@@H](c1cccc(N2Cc3c(cc(CNC4(C)CCC4)cc3C(F)(F)F)C2=O)c1)C1CCC1` [Compound 258, (R)-2-(3-(cyclobutyl(4-methyl-4H-1,2,4-triazol-3-yl)methyl)phenyl)-6-(((1-methylcyclobutyl)amino)methyl)-4-(trifluoromethyl)isoindolin-1-one], the IC50 against c-Cbl came to 970 nM. Also, at Cbl-b, the half-inhibitory concentration (IC50) came to 170 nM and the “fold-selectivity (Cbl-b over C-cbl)” value is 5.8x. For the same molecule, the Kd on c-Cbl (residues 47-435) was 2200 nM. Moreover, in assay [1], the Fold of selectivity stood at 13× and the Kd stood at 170 nM.

In the case of `Cn1cnnc1[C@@H](c1cccc(N2Cc3c(cc(CNC4(C)CCC4)cc3C(F)(F)F)C2=O)c1)C1CC(OCC(F)F)C1` (stereo partly drawn) [Compound 260, 2-(3-((R)-((1r,3R)-3-(2,2-difluoroethoxy)cyclobutyl)(4-methyl-4H-1,2,4-triazol-3-yl)methyl)phenyl)-6-(((1-methylcyclobutyl)amino)methyl)-4-(trifluoromethyl)isoindolin-1-one], the IC50 against c-Cbl stood at 2400 nM. At Cbl-b, the IC50 is 450 nM and the “fold-selectivity (Cbl-b over C-cbl)” value is 5.4x. At c-Cbl (residues 47-435), this molecule gave a Kd of 2200 nM. In assay [1], this molecule displayed a Fold of selectivity of 8.8× and a Kd of 590 nM.

For `Cn1cnnc1[C@@H](c1cccc(N2Cc3c(Cl)cc(CNC4(C)CCC4)cc3C2=O)c1)C1COC1` [Compound 270, (R)-4-chloro-2-(3-((4-methyl-4H-1,2,4-triazol-3-yl)(oxetan-3-yl)methyl)phenyl)-6-(((1-methylcyclobutyl)amino)methyl)-isoindolin-1-one], the IC50 at c-Cbl amounted to 27 nM. For the same molecule, on Cbl-b, the IC50 amounted to 11 nM and the “fold-selectivity (Cbl-b over C-cbl)” value is 2.3x. The same molecule had a Kd at c-Cbl (residues 47-435) of 16 nM. In assay [1], the Fold of selectivity is 5.9× and the Kd amounted to 2.6 nM.

Turning to `Cn1cnnc1[C@]1(c2cccc(N3Cc4c(cc(CNC5(C)CCC5)cc4C(F)F)C3=O)c2)C[C@@H](F)C1` [Compound 272, 4-(difluoromethyl)-2-(3-((1r,3r)-3-fluoro-1-(4-methyl-4H-1,2,4-triazol-3-yl)cyclobutyl)phenyl)-6-(((1-methylcyclobutyl)amino)methyl)isoindolin-1-one], the figures for the IC50 at c-Cbl and on Cbl-b were 25 nM and 15 nM, respectively. In addition, at Cbl-b, the “fold-selectivity (Cbl-b over C-cbl)” value stood at 1.7x. In addition, the Kd was 11 nM at c-Cbl (residues 47-435) and 1.4 nM in assay [1]. The molecule further came in with a Fold of selectivity in assay [1] of 7.6×.

With `CCNc1cc([C@]2(c3nncn3C)C[C@@H](C)C2)cc(N2Cc3c(cc(CNC4(C)CCC4)cc3C(F)F)C2=O)n1` [Compound 274, 4-(difluoromethyl)-2-(6-(ethylamino)-4-((1s,3s)-3-methyl-1-(4-methyl-4H-1,2,4-triazol-3-yl)cyclobutyl)pyridin-2-yl)-6-(((1-methylcyclobutyl)amino)methyl)isoindolin-1-one], the IC50 was found to be 6.9 nM on c-Cbl and 7.5 nM on Cbl-b. In addition, the “fold-selectivity (Cbl-b over C-cbl)” value on Cbl-b is recorded as 0.91x. Besides, the Kd at c-Cbl (residues 47-435) came to 0.2 nM; in assay [1] it was 0.1 nM. Besides, the Fold of selectivity in assay [1] was determined as 2.0×.

For `Cn1cnnc1[C@@H](C[C@H]1CCOC1)c1cccc(N2Cc3c(cc(CNC4(C)CCC4)cc3C(F)(F)F)C2=O)c1` [Compound 277, 2-(3-((S)-1-(4-methyl-4H-1,2,4-triazol-3-yl)-2-((S)-tetrahydrofuran-3-yl)ethyl)phenyl)-6-(((1-methylcyclobutyl)amino)methyl)-4-(trifluoromethyl)isoindolin-1-one], the results for the IC50 against c-Cbl and against Cbl-b were 8600 nM and 3600 nM, respectively. Also, on Cbl-b, the “fold-selectivity (Cbl-b over C-cbl)” value was 2.3x. The Kd on c-Cbl (residues 47-435) was found to be 7700 nM; in assay [1], 1400 nM. Further, in assay [1], the Fold of selectivity is given as 5.3×.

For the molecule `Cn1cnnc1[C@H](C[C@H]1CCOC1)c1cccc(N2Cc3c(cc(CNC4(C)CCC4)cc3C(F)(F)F)C2=O)c1` [Compound 278, 2-(3-((R)-1-(4-methyl-4H-1,2,4-triazol-3-yl)-2-((S)-tetrahydrofuran-3-yl)ethyl)phenyl)-6-(((1-methylcyclobutyl)amino)methyl)-4-(trifluoromethyl)isoindolin-1-one], the IC50 came to 8900 nM against c-Cbl and 5000 nM on Cbl-b. For the same molecule, at Cbl-b, the “fold-selectivity (Cbl-b over C-cbl)” value was found to be 1.8x. Further, the Kd on c-Cbl (residues 47-435) was 8600 nM; in assay [1], 1800 nM. The Fold of selectivity in assay [1] amounted to 4.8×.

In the case of `Cn1cnnc1C1(c2cccc(N3Cc4c(cc(CNC5(C)CCC5)cc4C(F)(F)F)C3=O)c2)CCC1` [Compound 279, 2-(3-(1-(4-methyl-4H-1,2,4-triazol-3-yl)cyclobutyl)phenyl)-6-(((1-methylcyclobutyl)amino)methyl)-4-(trifluoromethyl)isoindolin-1-one], the IC50 against c-Cbl came out at 9.3 nM. Moreover, at Cbl-b, the IC50 is 6.6 nM and the “fold-selectivity (Cbl-b over C-cbl)” value is given as 1.4x. For the same molecule, the Kd at c-Cbl (residues 47-435) worked out at 12 nM. For the same molecule, in assay [1], the Fold of selectivity is given as 6.4× and binding was put at a Kd of 1.8 nM.
